Measured values from PubChem BioAssay (NCI).
Values joined by “and” are separate entries in the source; they are usually repeats but may differ in a detail not shown here. Identical values can stand only once.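 Results reflect a 48-hour exposure of cells in 96-well plates to compound at five concentrations. GI50 marks 50% less growth. TGI denotes the concentration required for complete inhibition of growth.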

Tests used:
Test in all cases: NCI tumour cell line growth inhibition, 48 h
CCRF-CEM leukemia = system: CCRF-CEM leukemia
HT29 colon = system: HT29 colon
M14 melanoma = system: M14 melanoma
NCI-H522 lung = system: NCI-H522 lung
OVCAR-5 ovarian = system: OVCAR-5 ovarian
SF-268 CNS = system: SF-268 CNS
SF-295 CNS = system: SF-295 CNS
SK-MEL-5 melanoma = system: SK-MEL-5 melanoma
SK-OV-3 ovarian = system: SK-OV-3 ovarian
UO-31 renal = system: UO-31 renal

SMILES | TGI (CCRF-CEM leukemia) [µM] | TGI (HT29 colon) [µM] | TGI (M14 melanoma) [µM] | TGI (NCI-H522 lung) [µM] | TGI (OVCAR-5 ovarian) [µM] | TGI (SF-268 CNS) [µM] | TGI (SF-295 CNS) | TGI (SK-MEL-5 melanoma) [µM] | TGI (SK-OV-3 ovarian) [µM] | TGI (UO-31 renal) [µM] | GI50 (CCRF-CEM leukemia) [µM] | GI50 (HT29 colon) [µM] | GI50 (M14 melanoma) [µM] | GI50 (NCI-H522 lung) [nM] | GI50 (OVCAR-5 ovarian) [µM] | GI50 (SF-268 CNS) [µM] | GI50 (SF-295 CNS) [µM] | GI50 (SK-MEL-5 melanoma) [µM] | GI50 (SK-OV-3 ovarian) [nM] | GI50 (UO-31 renal) [µM]
CC(C)(O)CO/N=C1\C(c2c(O)[nH]c3ccccc23)=Nc2ccccc21 | 6.54 | > 35 | > 43.3 | > 47.8 | 9.3 | > 60 | 18.4 µM | 2.28 | 2.05 | 5.09 |  |  |  |  |  |  |  |  |  | 
c1ccc(CCN2CCOCC2)nc1 | > 100 | > 100 | > 100 | > 100 | > 100 | > 100 | > 100 µM | > 100 | > 100 | > 100 |  |  |  |  |  |  |  |  |  | 
c1ccc2sc(C3(N4CCC5(CC4)OCCO5)CCCCC3)cc2c1 | > 100 | 86.4 | > 100 | > 100 | > 100 | > 100 | > 100 µM | > 100 | > 100 | > 100 |  |  |  |  |  |  |  |  |  | 
NC(=O)Nc1ccc(C(=O)NCCCNC(=O)c2ccc(NC(N)=O)cc2)cc1 | > 100 | > 100 | > 100 | > 100 | > 100 | > 100 |  | > 100 |  | > 100 |  |  |  |  |  |  |  |  |  | 
CCCC1=C(C(=O)OCC)C(c2ccccc2OC)C(C#N)=C(N)O1 (centres undefined) | 42.1 | > 100 | > 100 | 60.5 | > 100 | > 100 | > 100 µM | 64.7 | > 100 | > 100 | 19.4 | 34.4 | 34.2 | 25500 | > 100 | 37.8 | 84 | 23.9 | > 100000 | 37.5
COc1ccccc1/C=C/c1c(N)ncnc1Nc1cccc(Cl)c1 | 1.12 | 87.2 | 51.8 | 30.5 | > 100 | 38.8 | 65 µM | 43.4 |  | 57.1 |  |  |  |  |  |  |  |  |  | 
CN=C(N)/N=C(\N)Nc1cc2ccccc2c2ccccc12 | 26.1 | 32.9 | 33.4 | 26.2 | 33 | 27.5 | 32.5 µM | 30.6 | 32.9 | 27.4 |  |  |  |  |  |  |  |  |  | 
O=C1/C(=C/c2ccc(Cl)cc2)N=C(c2ccccc2)N1c1nc2c(Cl)cc(Cl)cc2s1 | 20.7 | 55.7 | > 100 |  | > 100 | > 100 | > 100 µM | 57.9 | > 100 | 79.8 |  |  |  |  |  |  |  |  |  | 
COc1c(O)c(O)c2c(c1O)C(=O)c1cc(C)cc(O)c1C2=O | > 100 | > 85.4 | > 100 | 48.1 | > 100 | > 100 | > 69.7 µM | > 100 | > 80 | > 100 |  |  |  |  |  |  |  |  |  | 
CCOC(=O)C(=O)Nc1c(CC)cccc1C(C)CC (centres undefined) | > 100 | > 100 | > 100 | > 100 | > 100 | > 100 | > 100 µM | > 100 | > 100 | > 100 |  |  |  |  |  |  |  |  |  | 
Nc1cccc2c1C1=NNC(=O)CC1C2 (centres undefined) | > 100 | > 22.9 |  | > 100 | > 100 | > 100 | > 100 µM | > 100 | > 100 | > 100 |  |  |  |  |  |  |  |  |  | 
O=C1C(c2c(O)[nH]c3ccccc23)=Nc2ccc(Br)cc21 | > 100 | > 100 | > 100 | > 100 | > 100 | 90.2 | 89.6 µM | > 100 | > 100 | 70.7 |  |  |  |  |  |  |  |  |  | 
Cc1c(NC(=O)c2cc([N+](=O)[O-])cc([N+](=O)[O-])c2)c(=O)n(-c2ccccc2)n1C | > 100 | > 100 | > 100 |  |  | > 100 |  | > 100 | > 100 | > 100 |  |  |  |  |  |  |  |  |  | 
C[C@H](N[C@H]1CCC[C@]1(O)C#Cc1ccc2c(c1)OCO2)c1ccccc1 | > 25 | > 25 | > 25 |  | > 25 | > 25 | > 25 µM | > 25 | > 25 | > 25 |  |  |  |  |  |  |  |  |  | 
Cc1ccc2ccc3ccc(C)nc3c2n1 | > 100 | > 100 | > 100 | > 100 | > 100 | > 100 | > 100 µM | > 100 | > 100 | > 100 |  |  |  |  |  |  |  |  |  | 
O=C1C(=c2cc3c(c4ccccc24)=NC24CCCCC2C(c2ccccc2)C=C(c2ccccc2)N34)C(=O)c2ccccc21 (centres undefined) | > 100 | > 100 | > 100 | 47.5 | > 100 | > 100 | > 100 µM | > 100 | > 100 | > 100 |  |  |  |  |  |  |  |  |  | 
O=C(Nc1sccc1S(=O)(=O)c1ccc(Cl)cc1)c1ccccc1 | > 100 | > 100 | > 100 | > 100 | > 100 | > 100 | > 100 µM | > 100 | > 100 | > 100 |  |  |  |  |  |  |  |  |  | 
C/C=C1/CN2CCC34c5ccccc5N(C)C23C2CC1C4(C(=O)OC)C(O)O2 (centres undefined) | > 100 | > 100 | > 100 | > 100 | > 100 | > 100 | > 100 µM | > 100 | > 100 | > 100 |  |  |  |  |  |  |  |  |  | 
Cc1c2cc[n+](C)cc2c(C)c2c1[nH]c1ccc(Cl)cc12 | 26.5 | 44.9 | 40.6 | 2.38 | 84.4 | 0.831 | 4.37 µM | 5.99 | 53.3 | 42.8 |  |  |  |  |  |  |  |  |  | 
CSc1ccc(-c2cc(-c3nc4ccccc4[nH]3)nc(N)c2C#N)cc1 | 80.1 | 56.7 | 33.8 | 46.8 | 75.2 | 61.6 | 53 µM | 29 | > 100 |  |  |  |  |  |  |  |  |  |  | 
C=Cc1cc(OC)c2c(c1)c(=O)oc1c2cc(OC)c2c(O)ccc(C3OC(C)C(O)C(C)(O)C3O)c21 (centres undefined) |  | 0.666 | 0.00162 |  |  |  | 0.0099 µM and 0.0593 µM |  |  |  | 1.29e-05 | 0.000815 |  |  | 0.000251 | 0.000148 | 0.000699 |  | 0.565 | 0.00184
C[C@@H](CO)C1=CC(C#C[Si](C)(C)C)N(C(=O)Oc2ccccc2)c2ccccc21 (some centres undefined) | 72.6 | 35.2 | 35.6 | 33.9 | 57.1 | 39 | 28.1 µM | 30.5 | 56.3 | 30.4 |  |  |  |  |  |  |  |  |  | 
Cc1ccc([N+](=O)[O-])cc1S(=O)(=O)Nc1ccc(C2=NN(C(=O)c3ccccc3)C(c3cccs3)C2)cc1 (centres undefined) | > 100 | > 100 | > 100 | 70.8 | > 100 | > 100 | > 100 µM | 32.7 | 82.5 | > 100 |  |  |  |  |  |  |  |  |  | 
CNS(=O)(=O)c1ccc2[nH]c(O)c(C3=Nc4ccccc4C3=O)c2c1 | > 100 | > 100 | > 100 | > 100 | > 100 | > 100 | > 100 µM | > 100 | > 100 | > 100 |  |  |  |  |  |  |  |  |  | 
N#CCCOCN(CO)c1nc(N(CO)COCCC#N)nc(N(CO)COCCC#N)n1 | 58 | 69.9 | 45.1 | 47.5 | > 100 | 45.1 | 43.7 µM |  | > 100 | 43.2 |  |  |  |  |  |  |  |  |  | 
COc1cc(NC(=O)CSc2nc3ccccc3c(=O)n2CCc2ccccc2)cc(OC)c1OC | > 100 |  | > 100 | 4.2 |  | 43.9 | 15.3 µM |  | 3.69 |  | > 100 |  | 5.49 | 1650 |  | 3.55 | 3.21 |  | 1930 | 
O=C(NCCNc1nccc(-c2c(-c3cccc(O)c3)nc3sccn23)n1)Nc1cccc(C(F)(F)F)c1 | 13.7 | 10.8 | 3.39 | 5 | 65.3 | 14.6 | 29.7 µM | 8.43 |  | 16.8 | 3.25 | 3.45 | 1.79 | 2110 | 16.3 | 3.45 | 4.16 | 2.62 |  | 3.25
CC(=O)OC[C@@]1(C)[C@@H]2[C@@H]3[C@@]4(CO[C@]3(C)C(=O)[C@@]3(O)C[C@H](C)[C@H](OC(C)=O)[C@@H]3[C@H]4OC(C)=O)[C@H](OC(=O)c3ccccc3)C[C@@H]21 | > 100 | > 100 | > 100 | > 100 | > 100 | > 100 | > 100 µM | > 100 | > 100 | > 100 |  |  |  |  |  |  |  |  |  | 
